Assay results from patent US8268809B2, “Kinase inhibitors for preventing or treating pathogen infection and method of use thereof” (priority 2006, dated 2012).
“Also recorded” adds a separate entry of the source.

What was measured:
[1] = tested on: gamma-herpes variant that expresses GFP under a CMV promoter (GHV-Bac-GFP); assay: Herpes virus assay: GHV-Bac-GFP infection of 3T3 monolayers, cytopathic effect and GFP spread; format: cell-based, gamma-herpes virus; settings: for Herpes phenotype group / HERPES: 3T3 cells, GHV-Bac-GFP; for Herpes phenotype group: 10 μM, after 7 days; for HERPES: compound 10 μM, 7 days
Procedure: All herpes viruses share the property of establishing life-long infection in their host. […] To determine whether tyrosine kinases participate in gamma-herpes virus infections, confluent monolayers of 3T3 cells were exposed and plated in optical 96 well dishes to the library of compounds of the present invention described herein for 1 hour. The cells were then infected with a gamma-herpes variant that expresses GFP under a CMV promoter (GHV-Bac-GFP), and replaced the compounds of the present invention at final concentration of 10 μM.

[2] = tested on: vaccinia virus; settings: background statement, Reeves et al. 2005; cited from earlier work
[3] = tested on: vaccinia virus; format: cell-based
[4] = tested on: vaccinia virus; format: cell-based; remark: listed apart in the source

| SMILES | Herpes phenotype group [1] | HERPES [1] | VACCINIA Plaque Assay [3] | Class category of infected monolayers in plaque assay [3] | VACCINIA PLAQUE ASSAY 2 [3] | also measured |
| --- | --- | --- | --- | --- | --- | --- |
| CC(=O)Nc1ccc(-c2ccc3c(-c4ccc(Cl)c(Cl)c4)n[nH]c3n2)cc1 [APcK-25] | (iii) | DE- LAYED CPE |  |  |  |  |
| CC(=O)Nc1cccc(-c2ccc3c(-c4ccc(Cl)c(Cl)c4)n[nH]c3n2)c1 [APcK-42] | (iii) | DE- LAYED CPE |  |  |  |  |
| CCOC(=O)c1ccc(-c2ccc3c(-c4ccc(F)cc4)n[nH]c3n2)cc1 [APcK-53] | (iii) | DE- LAYED CPE |  |  |  |  |
| CC(=O)Nc1ccc(-c2ccc3c(-c4ccc(Br)cc4F)n[nH]c3n2)cc1 [APcK-21] | (iii) | DE- LAYED CPE |  |  |  |  |
| Cc1ccc(NC(=O)c2ccc(CN3CCOCC3)cc2)cc1Nc1nccc(-c2cccnc2)n1 [CGP51148 WBZ-4] | (iii) | DE- LAYED CPE |  |  |  |  |
| Cc1ccc(NC(=O)c2ccc(CN3CCN(C)CC3)cc2)cc1Nc1nccc(-c2cccnc2)n1 [CGP-2, reference compound] | (ii) | ENTRY OR EGRESS INHIB- ITOR |  |  |  | Plaque phenotype of known Abl-/Src-family kinase inhibitors [2]: somewhat reduced plaque size and loss of comets |
| CCOC(=O)c1ccc(-c2ccc3c(-c4ccc(Br)cc4F)n[nH]c3n2)cc1 [APcK-50] | (iii) | DE- LAYED CPE |  |  |  |  |
| Brc1cnc2c(Nc3ccccc3)nccn12 [LG2-55] | (iii) | DE- LAYED CPE | PINPOINT PLAQUES |  |  | Effects in Vaccinia assays [3]: had effects; Effects in Herpes assay [1]: had effects |
| COc1ccccc1NS(=O)(=O)c1cccc(Nc2cc(-c3ccc(Cl)cc3)ncn2)c1 [Eph2_wbz 115] |  | DE- LAYED CPE |  |  |  |  |
| CCOC(=O)c1ccc(-c2ccc3c(-c4ccc(C)c(F)c4)n[nH]c3n2)cc1 [APcK-51] | (iii) | DE- LAYED CPE |  |  |  |  |
| CC(=O)Nc1cccc(-c2ccc3c(-c4ccc(Br)c(F)c4)n[nH]c3n2)c1 [APcK-43] |  | DE- LAYED CPE | NO PLAQUES | Class III | NO PLAQUES | Effects in Vaccinia assays [3]: had effects; Effects in Herpes assay [1]: had effects |
| Cc1ccc(NC(=O)c2ccc(CN3CCN(C)CC3)cc2)cc1Nc1nccc(-c2cncc(-c3ccncc3)c2)n1 [StiAF3-iAR] | (ii) | ENTRY OR EGRESS INHIB- ITOR |  |  |  |  |
| CC(=O)c1cccc(-c2cnc3c(Nc4ccc(N5CCOCC5)cc4)nccn23)c1 [LG2-81] | (iii) | DE- LAYED CPE |  |  |  |  |
| CC(=O)Nc1cccc(-c2ccc3c(-c4ccc(F)cc4)n[nH]c3n2)c1 [APcK-103] | (iii) | DE- LAYED CPE | NO PLAQUES | Class III | NO PLAQUES | Effects in Vaccinia assays [3]: had effects; Effects in Herpes assay [1]: had effects |
| Cc1ccc(NC(=O)c2ccc(CN3CCN(C)CC3)cc2)cc1Nc1nccc(-c2cncc(-c3ccncc3)c2)n1 [WBZ-6] |  | DE- LAYED CPE |  |  |  |  |
| O=C(c1ccccc1)c1ccc(-c2ccc3c(-c4ccc(F)cc4)n[nH]c3n2)cc1 [APcK-36] | (iii) | DE- LAYED CPE |  |  |  |  |
| Brc1cnc2c(Nc3ccc(N4CCOCC4)cc3)nccn12 [LG2-77] | (iii) | DE- LAYED CPE |  |  |  |  |
| Cc1ccc(NC(=O)c2ccc(CN3CCN(Cc4ccc(F)cc4)CC3)cc2)cc1Nc1nccc(-c2cccnc2)n1 [STI-F] |  |  | PINPOINT PLAQUES | Class III | NO PLAQUES | Actin protein tails [4]: few actin tails |
| Nc1cccc(-c2ccc3nnc(-c4ccco4)n3n2)c1 [LG2-71] | (ii) | ENTRY OR EGRESS INHIB- ITOR | SMALL PLAQUES, WITH COMETS | Class III | PINPOINTS | Effects in Vaccinia assays [3]: had effects; Plaque phenotype due to drug treatment (FIGS. 1, 2, 4) [3]: small plaques with comets; Effects in Herpes assay [1]: had effects |
| CC(=O)Nc1ccc(-c2ccc3c(-c4ccc(Br)cc4)n[nH]c3n2)cc1 [APcK-27] |  |  | PINPOINT PLAQUES | Class III | SMALL PLAQUES | Plaque phenotype due to drug treatment (FIGS. 1, 2, 4) [3]: pinpoint plaque formations; also recorded: pinpoint plaques |
| CC(=O)Nc1cccc(-c2ccc3c(-c4ccc(C#N)cc4)n[nH]c3n2)c1 [APcK-44] |  |  | SMALL PLAQUES WITH COMETS | Class III | PINPOINT PLAQUES |  |
| Brc1cnc2c(NCC3CC3)nccn12 [LG2-101] |  |  | SMALL PLAQUES, WITH TAILS | Class III | PINPOINTS |  |
| COc1cc(OC)cc(-c2ccc3c(-c4ccc(F)c(C)c4)n[nH]c3n2)c1 [APcK-109] |  |  | SLIGHTLY SMALLER PLAQUES | Class II | SMALL PLAQUES, LARGE TAILS |  |
| COc1ccc(-c2n[nH]c3nc(-c4cccc(NC(C)=O)c4)ccc23)cc1 [APcK-101] |  |  |  |  |  | Plaque phenotype due to drug treatment (FIGS. 1, 2, 4) [3]: damaged monolayer |
| COc1ccccc1Nc1cc(-c2ccc([N+](=O)[O-])cc2)ncn1 [Eph2_wbz 203] |  |  | SMALL PLAQUES, STILL SEE COMETS | Class III | SMALL PLAQUES | Actin protein tails [4]: wild-type actin protein tails; Plaque phenotype due to drug treatment (FIGS. 1, 2, 4) [3]: small plaques with comets |
| CCOC(=O)c1ccc(-c2ccc3c(-c4ccc(C#N)cc4)n[nH]c3n2)cc1 [APcK-55] |  |  |  |  | NO PLAQUES |  |
| COc1ccc(Nc2nccn3c(Br)cnc23)cc1 [LG2-9] |  |  | SLIGHTLY SMALLER PLAQUES | Class III | PINPOINTS |  |
| Cc1ccc(NC(=O)c2ccc(CN3CCN(Cc4ccc(I)cc4)CC3)cc2)cc1Nc1nccc(-c2cccnc2)n1 [STLL3] |  |  | PINPOINT PLAQUES | Class III | NO PLAQUES |  |
| Cn1c(=O)c(-c2c(Cl)cccc2Cl)cc2cnc(Nc3ccc(Br)cc3)nc21 [PD-Br] |  |  | SMALL PLAQUES, CPE | Class III | NO PLAQUES |  |
